Measurements from ChEMBL document CHEMBL1201862, “PubChem BioAssay data set” (2004).
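In this assay, cells in 96-well plates receive the compound at five concentrations for 48 hours. Endpoints are linearly interpolated between the surrounding concentrations. The concentration for 50% growth inhibition is given as GI50.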 Calls of active or inactive are those of the source. Cut-off read from the data, not from the text of the source: active = GI50 up to about 1.1 µM and inactive = higher.

Experiments:
Test in all cases: inhibition of tumour cell growth, NCI panel, 48 h
A498 = tested on: A498
SK-MEL-28 = tested on: SK-MEL-28
SK-MEL-5 = tested on: SK-MEL-5
Malme-3M = tested on: Malme-3M
LOX IMVI = tested on: LOX IMVI
DMS-273 = tested on: DMS-273
SF-268 = tested on: SF-268
RXF 393 = tested on: RXF 393
CCRF-CEM = tested on: CCRF-CEM
OVCAR-5 = tested on: OVCAR-5
HT-29 = tested on: HT-29
IGROV-1 = tested on: IGROV-1
RPMI-8226 = tested on: RPMI-8226
UACC-62 = tested on: UACC-62
SF-295 = tested on: SF-295
SW-620 = tested on: SW-620
NCI-H522 = tested on: NCI-H522

Cn1c2c(c3ccccc31)C1CCCCC1C1C(=O)NC(=O)C21 (stereo unspecified)
GI50 (A498): 22.5 µM (inactive)
GI50 (SK-MEL-28): 88.9 µM (inactive)
GI50 (SK-MEL-5): 45 µM (inactive)
GI50 (Malme-3M): 32.1 µM (inactive)
GI50 (LOX IMVI): 33.1 µM (inactive)
GI50 (DMS-273): > 10 µM (inactive)
GI50 (SF-268): 70.1 µM (inactive)
GI50 (RXF 393): 32.4 µM (inactive)
GI50 (CCRF-CEM): 36.6 µM (inactive)
GI50 (OVCAR-5): > 100 µM (inactive)
GI50 (HT-29): 33.1 µM (inactive)
GI50 (IGROV-1): > 100 µM (inactive)
GI50 (RPMI-8226): 41.8 µM (inactive)
GI50 (UACC-62): > 100 µM (inactive)
GI50 (SF-295): 57.7 µM (inactive)
GI50 (SW-620): 52 µM (inactive)

CN(C)CCCNC(=O)c1cccc2nc3ccccc3nc12
GI50 (NCI-H522): 26.6 µM (inactive)
GI50 (A498): 16 µM (inactive)
GI50 (SK-MEL-28): 19.2 µM (inactive)
GI50 (SK-MEL-5): > 54 µM (inactive)
GI50 (Malme-3M): 4.42 µM (inactive)
GI50 (LOX IMVI): 6.52 µM (inactive)
GI50 (DMS-273): 9.91 µM (inactive)
GI50 (SF-268): 0.32 µM (active)
GI50 (RXF 393): 15.6 µM (inactive)
GI50 (OVCAR-5): 20.9 µM (inactive)
GI50 (HT-29): 6.75 µM (inactive)
GI50 (IGROV-1): 34.2 µM (inactive)
GI50 (RPMI-8226): 20.1 µM (inactive)
GI50 (UACC-62): 24.1 µM (inactive)
GI50 (SF-295): 19.5 µM (inactive)
GI50 (SW-620): 8.13 µM (inactive)

CCOC(=O)COS(=O)(=O)C(F)(F)F
GI50 (NCI-H522): > 100 µM (inactive)
GI50 (A498): > 100 µM (inactive)
GI50 (SK-MEL-28): > 100 µM (inactive)
GI50 (SK-MEL-5): > 100 µM (inactive)
GI50 (Malme-3M): > 100 µM (inactive)
GI50 (LOX IMVI): 18.8 µM (inactive)
GI50 (DMS-273): 18.4 µM (inactive)
GI50 (SF-268): 60.4 µM (inactive)
GI50 (RXF 393): > 100 µM (inactive)
GI50 (CCRF-CEM): > 100 µM (inactive)
GI50 (OVCAR-5): > 100 µM (inactive)
GI50 (HT-29): > 100 µM (inactive)
GI50 (IGROV-1): > 100 µM (inactive)
GI50 (RPMI-8226): 23.9 µM (inactive)
GI50 (UACC-62): > 100 µM (inactive)
GI50 (SF-295): > 100 µM (inactive)

O=C(/C=C/c1ccc(Cl)c(Cl)c1)c1ccc(F)cc1
GI50 (NCI-H522): 4.45 µM (inactive)
GI50 (A498): 50.9 µM (inactive)
GI50 (SK-MEL-28): 18.6 µM (inactive)
GI50 (SK-MEL-5): 19.9 µM (inactive)
GI50 (Malme-3M): 34.3 µM (inactive)
GI50 (DMS-273): 12.5 µM (inactive)
GI50 (SF-268): 28.2 µM (inactive)
GI50 (CCRF-CEM): 4.42 µM (inactive)
GI50 (OVCAR-5): 18.3 µM (inactive)
GI50 (HT-29): 13.3 µM (inactive)
GI50 (IGROV-1): 20.3 µM (inactive)
GI50 (RPMI-8226): 3.3 µM (inactive)
GI50 (UACC-62): 14.7 µM (inactive)
GI50 (SF-295): 20.2 µM (inactive)
GI50 (SW-620): 2.05 µM (inactive)

Cc1cc(N(CCC#N)CCC#N)ccc1/C=C(/NC(=O)/C=C/c1ccccc1)C(N)=O
GI50 (NCI-H522): 13.8 µM (inactive)
GI50 (A498): > 100 µM (inactive)
GI50 (SK-MEL-28): > 100 µM (inactive)
GI50 (SK-MEL-5): > 100 µM (inactive)
GI50 (Malme-3M): > 100 µM (inactive)
GI50 (LOX IMVI): 97.5 µM (inactive)
GI50 (DMS-273): > 100 µM (inactive)
GI50 (SF-268): > 100 µM (inactive)
GI50 (RXF 393): 4.19 µM (inactive)
GI50 (CCRF-CEM): > 100 µM (inactive)
GI50 (OVCAR-5): > 100 µM (inactive)
GI50 (HT-29): > 100 µM (inactive)
GI50 (IGROV-1): > 100 µM (inactive)
GI50 (RPMI-8226): > 100 µM (inactive)
GI50 (UACC-62): > 100 µM (inactive)
GI50 (SF-295): > 100 µM (inactive)
GI50 (SW-620): > 100 µM (inactive)

O=C1C2C3C=CC(C2C(=O)N1CN1CCSCC1)C1C2C(=O)N(CN4CCSCC4)C(=O)C2C31 (stereo unspecified)
GI50 (NCI-H522): > 100 µM (inactive)
GI50 (A498): > 100 µM (inactive)
GI50 (SK-MEL-28): > 100 µM (inactive)
GI50 (SK-MEL-5): > 100 µM (inactive)
GI50 (Malme-3M): > 100 µM (inactive)
GI50 (LOX IMVI): > 53.5 µM (inactive)
GI50 (DMS-273): > 43.5 µM (inactive)
GI50 (SF-268): > 50.4 µM (inactive)
GI50 (RXF 393): > 100 µM (inactive)
GI50 (CCRF-CEM): 45.9 µM (inactive)
GI50 (OVCAR-5): > 100 µM (inactive)
GI50 (HT-29): > 74 µM (inactive)
GI50 (IGROV-1): > 100 µM (inactive)
GI50 (RPMI-8226): 25.5 µM (inactive)
GI50 (UACC-62): > 100 µM (inactive)
GI50 (SF-295): > 100 µM (inactive)
GI50 (SW-620): 31.7 µM (inactive)

COC(=O)/C(=C\c1ccc(N(CCC#N)CCC#N)cc1)NC(=O)c1cc([N+](=O)[O-])ccc1Cl
GI50 (NCI-H522): > 100 µM (inactive)
GI50 (A498): > 100 µM (inactive)
GI50 (SK-MEL-28): > 100 µM (inactive)
GI50 (SK-MEL-5): > 100 µM (inactive)
GI50 (Malme-3M): > 100 µM (inactive)
GI50 (LOX IMVI): > 100 µM (inactive)
GI50 (DMS-273): > 100 µM (inactive)
GI50 (SF-268): > 100 µM (inactive)
GI50 (RXF 393): > 100 µM (inactive)
GI50 (CCRF-CEM): > 100 µM (inactive)
GI50 (OVCAR-5): > 100 µM (inactive)
GI50 (HT-29): > 100 µM (inactive)
GI50 (IGROV-1): > 100 µM (inactive)
GI50 (RPMI-8226): > 100 µM (inactive)
GI50 (UACC-62): > 100 µM (inactive)
GI50 (SF-295): > 100 µM (inactive)
GI50 (SW-620): > 100 µM (inactive)

CC1C(O)=C(O)c2ccccc2N1O (stereo unspecified)
GI50 (NCI-H522): 25.1 µM (inactive)
GI50 (A498): > 100 µM (inactive)
GI50 (SK-MEL-28): > 100 µM (inactive)
GI50 (SK-MEL-5): > 100 µM (inactive)
GI50 (Malme-3M): > 100 µM (inactive)
GI50 (LOX IMVI): 82.2 µM (inactive)
GI50 (DMS-273): > 100 µM (inactive)
GI50 (SF-268): > 100 µM (inactive)
GI50 (RXF 393): 60.4 µM (inactive)
GI50 (CCRF-CEM): 47.3 µM (inactive)
GI50 (OVCAR-5): > 100 µM (inactive)
GI50 (HT-29): 12.2 µM (inactive)
GI50 (IGROV-1): > 100 µM (inactive)
GI50 (RPMI-8226): 80.4 µM (inactive)
GI50 (UACC-62): > 100 µM (inactive)
GI50 (SF-295): > 100 µM (inactive)
GI50 (SW-620): 98.9 µM (inactive)
